Measured values as given in patent EP2698383B1, “Detection of synthetic Cannabinoids” (priority 2012, dated 2014).
Read-outs that look alike come from different tables or passages of the source.

Legend:
Type in all cases: binding, sheep
[1] = system: antibodies raised against immunogen 2b; assay: Competitive ELISA cross-reactivity, for both antibodies; conditions: cross reactants 100ng/ml; tracer 1 (C7); (±)-CP-47,497 (C8 homologue) as standard
Experimental: (§1) The wells of an enhanced binding 96 well polystyrene microtiter plate were coated with IgG fraction of antiserum (Antibody 4.1 or antibody 4.2) raised to Immunogen 4 in separate host animals, diluted in 10mM Tris, pH8.5 (125µl/well). The appropriate antibody coating dilution was determined using standard ELISA checkerboard techniques. The plate was incubated overnight at 4°C, washed 4 times over 10 minutes with Tris buffered saline containing Tween 20 (TBST) and tapped dry.
(§2) Standard solutions of CP47,497 -C8 were prepared in TBST at 0, 2.5, 5, 10, 20, 40, 80 and 160ng/ml for Antibody 4.1, and at 0, 5, 10, 20, 40, 80, 160 and 320ng/ml for Antibody 4.2, and 50µl of each was added to the appropriate wells. 75µl of conjugate (Hapten 1-HRP - tracer 1 - see Figure 4) diluted in Tris buffer (pH 7.2) containing EDTA, D-mannitol, sucrose, thimerosal and BSA, was added to each of the wells. The appropriate dilution of conjugate was also determined using standard ELISA checkerboard techniques. The plate was incubated at 25°C for 1 hour. Excess unbound conjugate was removed by washing 6 times over a 10 minute period with TBST. 125µl of tetramethylbenzidine (TMB) substrate solution was added to each well of the plate that was then incubated for 20 minutes in the dark at room temperature. The reaction was terminated by addition of 125µl 0.2M H2SO4 to each well. The absorbance was then measured at 450nm using a microtiter plate reader.
(§3) In order to determine the specificity of the competitive ELISAs, standard solutions of a range of structurally similar compounds were prepared in TBST. Using the calibration curves generated and employing a single level of cross reactants (100ng/ml), these were used to determine the cross-reactivity of each immunoassay with these substances. The results of this study are presented in Table 2, as %B/B0, employing antisera raised against Immunogen 2b (C8), tracer 1 (C7) and (±)-CP-47,497 (C8 homologue) as standard.

Antibody 4.1 = system: Antibody 4.1
Experimental: as §1, §2, §3

Antibody 4.2 = system: Antibody 4.2
Experimental: as §1, §2, §3

[2] = Cross-reactants at 100ng/ml, tracer 1 (C7), (±)-CP-47,497 (C8 homologue) as standard
[3] = standard 5 ng/ml, tracer 1 (C7)
[4] = standard 10 ng/ml, tracer 1 (C7)
[5] = standard 20 ng/ml, tracer 1 (C7)
[6] = standard 40 ng/ml, tracer 1 (C7)
[7] = standard 80 ng/ml, tracer 1 (C7)
[8] = standard 160 ng/ml, tracer 1 (C7)
[9] = standard concentration which produces 50% B/B0, tracer 1 (C7)

Row | Compound | %B/B0 [1] | %B/B0 (Antibody 4.1; [2]) | %B/B0 (Antibody 4.2; [2]) | further results
1 | CCCCCCC(C)(C)c1ccc([C@@H]2C[C@H](O)CC[C@H]2CCCO)c(O)c1 (racemic) [(+-)-CP 55,940] | greater than 80% | 93.65% | 97.34% | –
2 | CCCCCCC(C)(C)c1ccc([C@H]2CCC[C@@H](O)C2)c(O)c1 (racemic) [(±)-CP-47,497 (C7 homologue)] | less than 50% | 37.14% | 48.85% | –
3 | CCCCCCC(C)(C)C1=CC(=O)C(C2CCCC(O)C2)=CC1=O (racemic) [(±)-CP-47,497 (C7 para quinone analogue)] | greater than 80% | 82.66% | 89.82% | –
4 | CCCCCCCC(C)(C)c1ccc(C2CCCC(O)C2)c(O)c1 (racemic) [(±)-CP-47,497 (C8 homologue)] | less than 50% | 36.52% | 49.65% | %B/B0 (Antibody 4.1; standard 2.5 ng/ml, tracer 1 (C7)): 82%; %B/B0 (Antibody 4.1; [3]): 72%; %B/B0 (Antibody 4.1; [4]): 60%; %B/B0 (Antibody 4.1; [5]): 51%; %B/B0 (Antibody 4.1; [6]): 43%; %B/B0 (Antibody 4.1; [7]): 38%; %B/B0 (Antibody 4.1; [8]): 34%; IC50 (Antibody 4.1; [9]): 0.020922 µg/mL; %B/B0 (Antibody 4.2; [3]): 88%; %B/B0 (Antibody 4.2; [4]): 82%; %B/B0 (Antibody 4.2; [5]): 72%; %B/B0 (Antibody 4.2; [6]): 63%; %B/B0 (Antibody 4.2; [7]): 52%; %B/B0 (Antibody 4.2; [8]): 44%; %B/B0 (Antibody 4.2; standard 320 ng/ml, tracer 1 (C7)): 37%; IC50 (Antibody 4.2; [9]): 0.095992 µg/mL
5 | CCCCCc1cc(O)c2c(c1)OC(C)(C)[C@@H]1CCC(C)=C[C@@H]21 [Delta 9 THC] | – | 96.44% | 94.09% | –
6 | CCCCCCC(C)(C)c1cc(O)c2c(c1)OC(C)(C)[C@@H]1CC=C(CO)C[C@@H]21 [HU-210] | greater than 80% | 96.01% | 92.94% | –
7 | CCCCCCC(C)(C)c1cc(O)c2c(c1)OC(C)(C)[C@H]1CC=C(CO)C[C@H]21 [HU-211 (Dexanabinol), Dexanabinol] | greater than 80% | 96.76% | 95.84% | –
8 | CCCCCCC(C)(C)c1cc(OC)c([C@@H]2C=C(CO)[C@@H]3C[C@H]2C3(C)C)c(OC)c1 [HU-308] | – | 98.37% | 94.81% | –
9 | (+)-CP 55,940 | greater than 80% | – | – | %B/B0 (Antibody 4.1): 95.98%; %B/B0 (Antibody 4.2): 96.91%
10 | (-)-11-nor-9-Carboxy-delta9-THC | – | – | – | %B/B0 (Antibody 4.1): 95.23%; %B/B0 (Antibody 4.2): 94.38%
11 | (-)-CP 55,940 | greater than 80% | – | – | %B/B0 (Antibody 4.1): 91.26%; %B/B0 (Antibody 4.2): 97.23%
